Test results as given in paper PMC7730863 (Journal of medicinal chemistry, 2020).

Target: EGFR-L858R/T790M (Homo sapiens, UniProt P00533, L858R/T790M)
Experiment: radiolabeled 33P
Assay type: biochemical
Conditions: statement in text referring to Table 1

Sequence of EGFR-L858R/T790M (P00533 25-1210 T790M/L858R): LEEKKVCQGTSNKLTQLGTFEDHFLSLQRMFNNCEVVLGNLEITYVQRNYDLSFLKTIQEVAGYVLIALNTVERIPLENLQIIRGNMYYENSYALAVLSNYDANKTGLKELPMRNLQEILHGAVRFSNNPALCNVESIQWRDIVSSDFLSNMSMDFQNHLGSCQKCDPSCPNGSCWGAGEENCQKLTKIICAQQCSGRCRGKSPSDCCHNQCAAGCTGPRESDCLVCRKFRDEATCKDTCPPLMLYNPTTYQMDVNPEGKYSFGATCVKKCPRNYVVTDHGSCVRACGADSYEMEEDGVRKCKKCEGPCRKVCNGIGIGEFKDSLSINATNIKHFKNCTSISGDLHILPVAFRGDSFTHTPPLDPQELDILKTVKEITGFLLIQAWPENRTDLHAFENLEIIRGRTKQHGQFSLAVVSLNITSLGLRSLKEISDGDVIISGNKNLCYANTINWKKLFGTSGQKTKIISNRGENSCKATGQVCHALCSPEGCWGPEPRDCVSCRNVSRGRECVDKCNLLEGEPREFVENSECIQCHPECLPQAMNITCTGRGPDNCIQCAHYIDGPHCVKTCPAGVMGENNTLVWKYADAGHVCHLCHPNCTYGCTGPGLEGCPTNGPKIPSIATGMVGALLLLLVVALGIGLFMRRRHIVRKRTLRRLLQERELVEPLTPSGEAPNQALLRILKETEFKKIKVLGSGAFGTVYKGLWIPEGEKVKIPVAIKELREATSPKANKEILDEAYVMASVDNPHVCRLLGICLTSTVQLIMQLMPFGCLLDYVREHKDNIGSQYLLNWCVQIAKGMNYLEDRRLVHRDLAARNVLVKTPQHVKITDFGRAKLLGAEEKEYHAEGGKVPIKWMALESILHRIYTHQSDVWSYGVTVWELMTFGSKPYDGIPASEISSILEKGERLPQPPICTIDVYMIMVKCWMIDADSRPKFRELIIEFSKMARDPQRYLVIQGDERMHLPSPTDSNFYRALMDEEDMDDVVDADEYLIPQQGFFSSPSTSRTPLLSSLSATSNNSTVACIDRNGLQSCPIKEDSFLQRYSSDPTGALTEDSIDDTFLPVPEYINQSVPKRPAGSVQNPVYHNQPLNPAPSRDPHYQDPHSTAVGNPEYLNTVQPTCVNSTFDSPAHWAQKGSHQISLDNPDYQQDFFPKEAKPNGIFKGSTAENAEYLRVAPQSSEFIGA

With `C=CC(=O)Nc1ccc(OC)c(Nc2cc(-c3nc(SC)n(C)c3-c3ccc(F)cc3)ccn2)c1` [Compound 7, N-(3-((4-(5-(4-fluorophenyl)-1-methyl-2-(methylthio)-1H-imidazol-4-yl)pyridin-2-yl)amino)-4-methoxyphenyl)acrylamide] the “potency against EGFR(L858R/T790M), in words” value was “low nanomolar potency”.
